ChEMBL document CHEMBL3864159, “Variation of the aryl substituent on the piperazine ring within the 4-(piperazin-1-yl)-2,6-di(pyrrolidin-1-yl)pyrimidine scaffold unveils potent, non-competitive inhibitors of the inflammatory caspases” (Bioorg Med Chem Lett, 2016)

Assays:
Caspase-1 [1] = target: T1, Caspase-1 (Homo sapiens, UniProt P29466); assay: Inhibition of human recombinant N-terminal His-tagged DTT-activated caspase-1 expressed in Escherichia coli using Ac-WEHD-AMC as substrate preincubated for 30 mins followed by substrate addition by fluorescence assay
T1 sequence (P29466 whole entry): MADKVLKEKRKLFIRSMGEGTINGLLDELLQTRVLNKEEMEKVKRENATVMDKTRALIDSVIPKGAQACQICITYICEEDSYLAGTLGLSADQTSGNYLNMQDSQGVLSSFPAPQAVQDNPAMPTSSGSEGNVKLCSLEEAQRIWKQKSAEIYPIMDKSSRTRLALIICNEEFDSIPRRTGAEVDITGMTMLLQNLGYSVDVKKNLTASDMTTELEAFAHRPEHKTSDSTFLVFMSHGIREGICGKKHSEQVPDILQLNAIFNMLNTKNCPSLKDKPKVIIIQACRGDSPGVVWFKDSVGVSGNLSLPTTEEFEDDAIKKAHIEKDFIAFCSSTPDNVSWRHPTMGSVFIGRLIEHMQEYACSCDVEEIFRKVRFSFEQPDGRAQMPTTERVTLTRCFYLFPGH

Caspase-1 [2] = target: T1, Caspase-1; assay: Inhibition of human recombinant DTT-activated caspase-1 expressed in Escherichia coli using WEHD-AMC as substrate after 30 mins by fluorescence assay; conditions: read-out: Ki(app)
Caspase-4 = target: T2, Caspase-4 (Homo sapiens, UniProt P49662); assay: Inhibition of human recombinant N-terminal His-tagged DTT-activated caspase-4 expressed in Escherichia coli using Ac-LEVD-AMC as substrate preincubated for 30 mins followed by substrate addition by fluorescence assay
T2 sequence (P49662 whole entry): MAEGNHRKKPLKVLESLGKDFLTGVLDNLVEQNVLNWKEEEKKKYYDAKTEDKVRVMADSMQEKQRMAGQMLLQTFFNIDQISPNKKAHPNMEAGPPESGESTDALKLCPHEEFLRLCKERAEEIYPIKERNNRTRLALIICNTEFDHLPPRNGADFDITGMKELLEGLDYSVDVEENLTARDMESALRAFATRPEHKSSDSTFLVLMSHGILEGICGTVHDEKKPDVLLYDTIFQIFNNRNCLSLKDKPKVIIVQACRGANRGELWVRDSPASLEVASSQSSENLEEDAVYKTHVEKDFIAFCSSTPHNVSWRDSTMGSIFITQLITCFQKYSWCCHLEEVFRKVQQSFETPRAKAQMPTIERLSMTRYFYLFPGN

Caspase-5 [3] = target: T3, Caspase-5 (Homo sapiens, UniProt P51878); assay: Inhibition of human recombinant DTT-activated caspase-5 expressed in Escherichia coli using Ac-WEHD-AMC as substrate preincubated for 30 mins followed by substrate addition by fluorescence assay
T3 sequence (P51878 whole entry): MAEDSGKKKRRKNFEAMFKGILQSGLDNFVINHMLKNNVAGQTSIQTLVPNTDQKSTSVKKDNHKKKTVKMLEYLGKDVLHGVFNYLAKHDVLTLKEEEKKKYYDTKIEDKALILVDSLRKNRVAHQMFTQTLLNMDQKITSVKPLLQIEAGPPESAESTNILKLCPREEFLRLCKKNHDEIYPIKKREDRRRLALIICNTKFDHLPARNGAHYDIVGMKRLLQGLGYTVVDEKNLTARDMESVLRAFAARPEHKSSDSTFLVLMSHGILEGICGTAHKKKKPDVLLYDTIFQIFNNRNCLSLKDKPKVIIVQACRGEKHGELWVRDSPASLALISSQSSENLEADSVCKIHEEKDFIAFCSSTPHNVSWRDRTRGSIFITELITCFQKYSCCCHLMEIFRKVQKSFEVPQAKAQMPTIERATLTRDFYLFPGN

Caspase-5 [4] = target: T3, Caspase-5; assay: Inhibition of human recombinant DTT-activated caspase-5 expressed in Escherichia coli using Ac-WEHD-AMC as substrate preincubated for 15 mins followed by substrate addition by fluorescence assay
Caspase-5 [5] = target: T3, Caspase-5; assay: Inhibition of human recombinant DTT-activated caspase-5 expressed in Escherichia coli using Ac-WEHD-AMC as substrate preincubated for 45 mins followed by substrate addition by fluorescence assay

Question: What does the source list for C[C@]12C=CC(=O)C=C1CC[C@@H]1C2=CC[C@]2(C)[C@@H](C(=O)CN3CCN(c4cc(N5CCCC5)nc(N5CCCC5)n4)CC3)CC[C@@H]12?
Answer: Ki (Caspase-1 [1]): 50 nM; Ki (Caspase-1 [2]): 50 nM; IC50 (Caspase-4): 909 nM; Ki (Caspase-4): 337 nM; IC50 (Caspase-5 [3]): 910 nM; Ki (Caspase-5 [3]): 210 nM

Question: For c1cncc(CN2CCN(c3cc(N4CCCC4)nc(N4CCCC4)n3)CC2)c1, which IC50 (Caspase-1 [1]) is on record?
Answer: The IC50 was 1870 nM.

Question: What about the Ki (Caspase-1 [1]) of the same molecule?
Answer: The Ki was 534 nM.

Question: And the IC50 (Caspase-5 [4])?
Answer: The IC50 was 2560 nM.

Question: And the IC50 (Caspase-5 [5])?
Answer: Its IC50 is 155 nM.

Question: What about the IC50 (Caspase-4) of the same molecule?
Answer: Its IC50 is 2350 nM.

Question: And the Ki (Caspase-4)?
Answer: The Ki was 870 nM.

Question: What about the IC50 (Caspase-5 [3]) of the same molecule?
Answer: Its IC50 is 254 nM.

Question: And the Ki (Caspase-5 [3])?
Answer: The Ki was 59 nM.

Question: Which results are given for FC(F)(F)c1cc(CN2CCN(c3cc(N4CCCC4)nc(N4CCCC4)n3)CC2)cc(C(F)(F)F)c1?
Answer: IC50 (Caspase-1 [1]): 706 nM; Ki (Caspase-1 [1]): 202 nM; IC50 (Caspase-4): > 5000 nM; IC50 (Caspase-5 [3]): 210 nM; Ki (Caspase-5 [3]): 48 nM

Question: How did the IC50 (Caspase-1 [1]) turn out when O=[N+]([O-])c1ccccc1CN1CCN(c2cc(N3CCCC3)nc(N3CCCC3)n2)CC1 was run?
Answer: Its IC50 is 796 nM.

Question: What about the Ki (Caspase-1 [1]) of the same molecule?
Answer: The Ki was 227 nM.

Question: And the IC50 (Caspase-4)?
Answer: The IC50 was 721 nM.

Question: And the Ki (Caspase-4)?
Answer: Its Ki is 267 nM.

Question: And the IC50 (Caspase-5 [3])?
Answer: Its IC50 is 105 nM.

Question: What about the Ki (Caspase-5 [3]) of the same molecule?
Answer: Its Ki is 24 nM.

Question: c1c(N2CCCC2)nc(N2CCCC2)nc1N1CCNCC1 was tested. Which IC50 (Caspase-1 [1]) did it give?
Answer: The IC50 was 455 nM.

Question: And the Ki (Caspase-1 [1])?
Answer: Its Ki is 130 nM.

Question: What about the IC50 (Caspase-4) of the same molecule?
Answer: The IC50 was 560 nM.

Question: And the Ki (Caspase-4)?
Answer: Its Ki is 207 nM.

Question: What about the IC50 (Caspase-5 [3]) of the same molecule?
Answer: The IC50 was 205 nM.

Question: And the Ki (Caspase-5 [3])?
Answer: The Ki was 47 nM.

Question: What does the source list for c1ccc(CN2CCN(c3cc(N4CCCC4)nc(N4CCCC4)n3)CC2)cc1?
Answer: IC50 (Caspase-1 [1]): 700 nM; Ki (Caspase-1 [1]): 200 nM; IC50 (Caspase-4): > 5000 nM; IC50 (Caspase-5 [3]): 178 nM; Ki (Caspase-5 [3]): 41 nM

Question: With COc1cccc(CN2CCN(c3cc(N4CCCC4)nc(N4CCCC4)n3)CC2)c1 as the molecule, how does the IC50 (Caspase-1 [1]) read?
Answer: The IC50 was 262 nM.

Question: And the Ki (Caspase-1 [1])?
Answer: Its Ki is 75 nM.

Question: And the IC50 (Caspase-4)?
Answer: Its IC50 is 746 nM.

Question: What about the Ki (Caspase-4) of the same molecule?
Answer: The Ki was 276 nM.

Question: And the IC50 (Caspase-5 [3])?
Answer: Its IC50 is 482 nM.

Question: What about the Ki (Caspase-5 [3]) of the same molecule?
Answer: The Ki was 111 nM.

Question: Which IC50 (Caspase-1 [1]) does the source give for COc1cc(CN2CCN(c3cc(N4CCCC4)nc(N4CCCC4)n3)CC2)cc(OC)c1 here?
Answer: Its IC50 is 173 nM.

Question: What about the Ki (Caspase-1 [1]) of the same molecule?
Answer: Its Ki is 49 nM.

Question: And the IC50 (Caspase-4)?
Answer: The IC50 was 400 nM.

Question: What about the Ki (Caspase-4) of the same molecule?
Answer: The Ki was 148 nM.

Question: And the IC50 (Caspase-5 [3])?
Answer: Its IC50 is 149 nM.

Question: What about the Ki (Caspase-5 [3]) of the same molecule?
Answer: The Ki was 34 nM.

Question: How did the IC50 (Caspase-1 [1]) turn out when c1ccc(CCN2CCN(c3cc(N4CCCC4)nc(N4CCCC4)n3)CC2)cc1 was run?
Answer: Its IC50 is 56 nM.

Question: What about the Ki (Caspase-1 [1]) of the same molecule?
Answer: The Ki was 16 nM.

Question: What about the IC50 (Caspase-4) of the same molecule?
Answer: Its IC50 is 21 nM.

Question: What about the Ki (Caspase-4) of the same molecule?
Answer: The Ki was 8 nM.

Question: What about the IC50 (Caspase-5 [3]) of the same molecule?
Answer: Its IC50 is 71 nM.

Question: And the Ki (Caspase-5 [3])?
Answer: Its Ki is 16 nM.

Question: How did the IC50 (Caspase-1 [1]) turn out when c1cc(CN2CCN(c3cc(N4CCCC4)nc(N4CCCC4)n3)CC2)ccn1 was run?
Answer: The IC50 was 1060 nM.

Question: What about the Ki (Caspase-1 [1]) of the same molecule?
Answer: Its Ki is 303 nM.

Question: What about the IC50 (Caspase-4) of the same molecule?
Answer: The IC50 was 1060 nM.

Question: What about the Ki (Caspase-4) of the same molecule?
Answer: The Ki was 393 nM.

Question: What about the IC50 (Caspase-5 [3]) of the same molecule?
Answer: Its IC50 is 146 nM.

Question: And the Ki (Caspase-5 [3])?
Answer: The Ki was 34 nM.

Question: FC(F)(F)c1ccc(CN2CCN(c3cc(N4CCCC4)nc(N4CCCC4)n3)CC2)cc1 was tested. Which IC50 (Caspase-1 [1]) did it give?
Answer: Its IC50 is 639 nM.

Question: And the Ki (Caspase-1 [1])?
Answer: The Ki was 183 nM.

Question: What about the IC50 (Caspase-4) of the same molecule?
Answer: The IC50 was 1520 nM.

Question: And the Ki (Caspase-4)?
Answer: Its Ki is 563 nM.

Question: What about the IC50 (Caspase-5 [3]) of the same molecule?
Answer: The IC50 was 586 nM.

Question: What about the Ki (Caspase-5 [3]) of the same molecule?
Answer: Its Ki is 135 nM.

Question: How did the IC50 (Caspase-1 [1]) turn out when O=C(c1ccccc1)c1ccc(CN2CCN(c3cc(N4CCCC4)nc(N4CCCC4)n3)CC2)cc1 was run?
Answer: The IC50 was 205 nM.

Question: And the Ki (Caspase-1 [1])?
Answer: Its Ki is 59 nM.

Question: And the IC50 (Caspase-4)?
Answer: Its IC50 is 320 nM.

Question: What about the Ki (Caspase-4) of the same molecule?
Answer: Its Ki is 119 nM.

Question: And the IC50 (Caspase-5 [3])?
Answer: Its IC50 is 123 nM.

Question: And the Ki (Caspase-5 [3])?
Answer: Its Ki is 28 nM.

Question: Which IC50 (Caspase-1 [1]) does the source give for c1c(N2CCCC2)nc(N2CCCC2)nc1N1CCN(CC2CCCCC2)CC1 here?
Answer: The IC50 was 95 nM.

Question: And the Ki (Caspase-1 [1])?
Answer: The Ki was 27 nM.

Question: What about the IC50 (Caspase-4) of the same molecule?
Answer: The IC50 was 826 nM.

Question: And the Ki (Caspase-4)?
Answer: Its Ki is 306 nM.

Question: And the IC50 (Caspase-5 [3])?
Answer: The IC50 was 254 nM.

Question: And the Ki (Caspase-5 [3])?
Answer: Its Ki is 59 nM.

Question: What does the source list for O=[N+]([O-])c1ccc(CN2CCN(c3cc(N4CCCC4)nc(N4CCCC4)n3)CC2)cc1?
Answer: IC50 (Caspase-1 [1]): 450 nM; Ki (Caspase-1 [1]): 129 nM; IC50 (Caspase-4): 580 nM; Ki (Caspase-4): 215 nM; IC50 (Caspase-5 [3]): 430 nM; Ki (Caspase-5 [3]): 99 nM
